Measurements published in patent US20210244686A1, “Novel Systems And Methods For The Therapeutic Use of Cannabinoids or Cannabinoid Analogs to Increase The Lipid Order of Cholesterol Containing Cell Membranes” (The Regents of the University of Colorado a body corporate, priority 2018, published 2021).

Key:
[1] = tested on: SKNBE2 neuroblastoma cells; assay: Flow cytometric analysis of rhodamine-glibenclamide staining in live cells; assay type: cell-based, human; conditions: live cells, flow cytometry
[2] = tested on: endoplasmic reticulum in SKNBE2 and HaCaT keratinocyte cells; assay: Confocal microscopy of rhodamine-glibenclamide staining, ER structure; assay type: cell-based, human; conditions: for alteration of the structure of the endoplasmic reticulum: SKNBE2 and HaCaT keratinocyte cells
Experimental: FIG. 16. Rhodamine-glibenclamide staining in live cells is visualized by confocal microscopy in live cells. ER structure is perturbed after 2 hours of exposure to CBD and o-1602, but not for o-1821 exposure.

[3] = tested on: SK-N-BE(2) cells; assay: Live cell microscopy apoptosis assay (caspase 3/7 dye); conditions: for apoptotic response to combinatorial 25-hydroxy cholesterol/CBD treatment: 25-hydroxy cholesterol 15 μg/ml, CBD 20 μM, U18666A 10 μM or VULM 1457 5 μM, 24 hours
Experimental: To accurately measure cellular apoptosis over time, the present inventors performed live cell microscopy experiments with cells loaded with both DNA and caspase 3/7 dyes, which enables continuous and precise quantification of apoptosis at the single cell level.
Cell viability for SK-N-BE(2) cells was conducted using a fluorometric cell viability assay using Resazurin (PromoKine) according to the manufacturer's instructions. […] Dyes were added at the time of seeding, 18-24 hours prior to performing experiments.
Experiments were performed using an ImageXpress MicroXL microscope and a 10× objective, where images were acquired for each well at the indicated time-points using DAPI and FITC filter sets. […] Percent apoptotic cells was calculated from the sum of apoptotic cell pixels divided by the sum of all cell pixels for each field of view.

[4] = tested on: HEK293T cells; assay: as above; assay type: cell-based; conditions: for apoptotic response to combinatorial 25-hydroxy cholesterol/CBD treatment: 25-hydroxy cholesterol 15 μg/ml, CBD 20 μM, U18666A 10 μM or VULM 1457 5 μM, 24 hours
Experimental: In order to gain further insight into the sensitivity of CBD treated cells to 25-hydroxy cholesterol, the present inventors repeated the apoptosis assay in SK-N-BE(2) and HEK293T cells with combinatorial 25-hydroxy cholesterol/CBD stimulation using sublethal doses of 25-hydroxy cholesterol (15 μg/ml) and CBD (20 μM) in the presence or absence of either the chemical inhibitor of cholesterol transport (U18666A, 10 μM) or cholesterol storage (VULM 1457, 5 μM).
FRAP experiments reveal that DHA and CBD have opposing effects on the lateral diffusion of fluorescently labelled cholesterol in synthetic membranes. Although this implies that CBD increases lipid order and that DHA decreases lipid order, it remains unclear how relevant these biophysical effects of CBD and DHA are to cellular physiology. As a result, the present inventors sought to determine whether CBD and DHA have opposing effects on cells. To this end, the present inventors repeated the live cell apoptosis assays in cells exposed to increasing doses of DHA to determine how DHA affects cell death.

[5] = FRAP of NBD-cholesterol in synthetic membrane monolayers; conditions: DHA 20 μM plus CBD
Description: CBD's ability to affect cholesterol orientation in both synthetic and cell derived ER membranes implies that CBD may contribute to increased lipid order. The ability of cholesterol oxidase assays to reveal alterations in lipid order has been previously reported in studies noting that cholesterol oxidase can preferentially target caveolar domains, which are ordered lipid domains. Another hallmark of lipid order is a decrease in lateral diffusion of lipids. As a result, the present inventors aimed to measure CBD's ability to perturb the lateral diffusion of fluorescently labelled cholesterol (NBD-cholesterol) in synthetic membranes. The present inventors deposited PC SUVs containing 20% moles of cholesterol and 2% moles NBD-cholesterol on glass-bottom multi-well imaging plates, followed by ultra-sonification to construct fluorescently labelled membrane monolayers. Using these monolayers and confocal microscopy, the inventor's performed fluorescence recovery after photobleaching (FRAP) experiments to measure the kinetics of recovery of fluorescent cholesterol. […] This effect of CBD on lateral diffusion could be rescued with simultaneous treatment with the lipid disordering agent DHA (FIGS. 6G, I). There are two proposed models for how DHA affects cholesterol in membranes. […]

[6] = DHA 75 μM with MBCD 300 μM or CBD 6.25 μM

Molecule	rhodamine-glibenclamide fluorescence [1]	alteration of the structure of the endoplasmic reticulum [2]	other results
O=C1[C@H](CC[C@H](O)c2ccc(F)cc2)[C@@H](c2ccc(O)cc2)N1c1ccc(F)cc1 [Ezetimibe]	Enhanced fluorescence	–	–
C=C(C)[C@@H]1CCC(C)=C[C@H]1c1c(O)cc(CCCCC)c(C(=O)O)c1O [Cannabidiolic Acid, cannabidiolic acid]	Enhanced fluorescence	not	–
methyl beta cyclodextrin [MBCD]	–	–	effect on DHA induced apoptosis [3, 6]: completely cancel apoptosis; effect on DHA induced apoptosis [4, 6]: delay apoptosis
C=C(C)[C@@H]1CCC(C)=C[C@H]1c1c(C)cc(O)cc1O [o-1602, 5-methyl-4-[(1R,6R)-3-methyl-6-(1-methylethenyl)-2-cyclohexen-1-yl]-1,3-benzenediol]	Enhanced fluorescence	observed	ER structure ([2]; after 2 hours of exposure, live cells): perturbed
CC(C)c1c(C(=O)Nc2ccccc2)c(-c2ccccc2)c(-c2ccc(F)cc2)n1CC[C@@H](O)C[C@@H](O)CC(=O)O [Atorvastatin]	Enhanced fluorescence	–	–
CC/C=C\C/C=C\C/C=C\C/C=C\C/C=C\C/C=C\CCC(=O)O [DHA]	–	–	apoptosis ([3]; relatively low doses of DHA): induce apoptosis; apoptosis ([4]; relatively low doses of DHA): induce apoptosis; effect of CBD on lateral diffusion with simultaneous DHA [5]: rescued
C[C@H](CO)NC(=O)CCC/C=C\C/C=C\C/C=C\C/C=C\C(C)(C)CCCCC#N [o-1821]	Enhanced fluorescence	not	–
CCN(CC)CCO[C@H]1CC[C@@]2(C)C(=CC[C@@H]3[C@@H]2CC[C@]2(C)C(=O)CC[C@@H]32)C1 [U18666A]	–	–	apoptotic response to combinatorial 25-hydroxy cholesterol/CBD treatment [3]: restore the apoptotic response; apoptotic response to combinatorial 25-hydroxy cholesterol/CBD treatment [4]: restore the apoptotic response
CC(C)c1cccc(C(C)C)c1NC(=O)Nc1ccc(Sc2ccc([N+](=O)[O-])cc2)cc1 [VULM 1457]	–	–	apoptotic response to combinatorial 25-hydroxy cholesterol/CBD treatment [3]: restore the apoptotic response; apoptotic response to combinatorial 25-hydroxy cholesterol/CBD treatment [4]: restore the apoptotic response
CCCCCCC(C)(C)c1cc(OC)c(C2C=C(CO)C3CC2C3(C)C)c(OC)c1 (stereo not drawn) [HU-308, 4-[4-(1,1-dimethylheptyl)-2,6-dimethoxyphenyl]-6,6-dimethyl-bicyclo[3.1.1]hept-2-ene-2-methanol]	Enhanced fluorescence	–	–
C=C(C)[C@@H]1CCC(C)=C[C@H]1c1c(O)cc(O)cc1CCCCC [abnormal CBD, 4-[(1R,6R)-3-Methyl-6-(1-methylethenyl)-2-cyclohexen-1-yl]-5-pentyl-1,3-benzenediol]	Enhanced fluorescence	not	–
